Experimental data: patent US20190298708A1, “METHODS OF TREATING SUBJECTS WITH AN ELEVATED NEUROFILAMENT LIGHT CHAIN LEVEL” (Coherus Biosciences, Inc., priority 2018, published 2019)

Assays:
[1] = tested on: neurofilament light chain (NFL); assay: Blood NFL measurement by Simoa assay in RRMS patients given CHS-131; type: in vivo, human
Procedure: Capture monoclonal antibody (mAB) 47: 3 is buffer exchanged and diluted to 0.3 mg/mL 4×10^6 paramagnetic beads (Quanterix Corporation) are buffer exchanged and activated using 0.5 mg/mL 1-ethyl-3-(3-dimetylaminopropyl) carbodiimide (Quanterix), followed by a 30-minute incubation at room temperature (HulaMixer, Thermo Fischer Scientific). The diluted capture mAB 47:3 is conjugated with the washed and activated paramagnetic beads for a 2-hour incubation at room temperature on a mixer. After the incubation, the beads are washed three times using a magnetic separator and blocked. Next, the conjugated beads are suspended and stored at 4° C.
The Simoa assay is run on a Simoa HD-1 instrument (Quanterix) using a two-step Assay Neat 20 protocol. Briefly, 100 μL of calibrator/sample in Tris-buffered saline (TBS), 0.1% Tween 20, 1% milk powder, 400 μg/mL Heteroblock (Omega Biologicals), 25 μL conjugated beads in TBS, 0.1% Tween 20, 1% milk powder, 300 μg/mL Heteroblock, and 20 μL of mAB 2:1 (0.1 μg/mL in TBS, 0.1% Tween 20, 1% milk powder, 300 μg/mL Heteroblock) are incubated for 35 minutes 15 seconds (47 cadences with 1 cadence is 45 seconds). Next, the mixture is washed. Then, 100 μL of streptavidin-conjugated […] (150 pM; Quanterix) is added, followed by a 5 minutes 15 second (7-cadence) incubation and wash. The mixture will then be placed on a Simoa HD-1 instrument. Prior to reading, 25 μL Resorufin (3-D-galactopyranoside (Quanterix) is added. The calibrator curve is constructed using the standard from the NFL ELISA (NF-light, UmanDiagnostics). Samples and calibrators are measured in duplicates.
(§1) Serum Nfl levels were investigated in longitudinal blood samples. The aims of this study include: • to explore the predictive value of blood NFL concentrations in patients treated with CHS-131 (also known as INT-131), • to determine the kinetics of the response to CHS-131, • to analyze NFL as a marker for the effectiveness of CHS-131 in relapsing-remitting multiple sclerosis (RRMS) patients, • to assess the value of NFL concentrations in comparing the effectiveness of CHS-131 with the effectiveness of placebo, • to correlate blood NFL with radiological and clinical outcome parameters (such as magnetic resonance imaging (MRI) (Gd+ lesion counts, T2 lesion volume), annualized relapse rate (ARR), brain atrophy and correlation with expanded disability status scale (EDSS), • to examine the prognostic value of NFL concentrations by stratification of patients related to disease activity, • to determine the risk of relapse or risk of disease progression, and • to evaluate NFL concentrations as a retreatment predictive biomarker.
All patients receiving CHS-131 were orally adminisntered 1 mg or 3 mg CHS-131 daily. All control patients were orally administered a placebo tablet once a day. All patients enrolled in the study were treatment-naïve RRMS for <3 years.
The human plasma samples used for the analysis were coded and are not individually identifiable because neither the investigator nor any other individuals associated with the investigation or the sponsor can link the specimen to the subject from whom the specimen was collected, either directly or indirectly through coding systems.
The concentration of NFL […] in subject administered placebo, 1 mg daily CHS-131, and 3 mg daily CHS-131 are reported in Tables 1, 2, and 3, respectively.

[2] = tested on: relapsing-remitting multiple sclerosis (RRMS) patients; assay: Correlation of NFL concentration with CE and T2 lesions and EDSS; type: in vivo, human; settings: after six months of treatment, all groups combined
Description: as §1, with “biomarker. The correlation between NFL concentration and CE and T2 lesions was evaluated after six months of treatment with CHS-131 (all groups combined). […] The correlation between NFL concentration and EDSS was evaluated after six months of treatment with CHS-131 (all groups combined). […] Increased EDSS indicates increased disability, therefore lowering EDSS is considered effective treatment of multiple sclerosis.” for “biomarker.”

[3] = 1 mg daily CHS-131 oral, Wk0, RRMS patients
[4] = 1 mg daily CHS-131 oral, Wk12, RRMS patients
[5] = 1 mg daily CHS-131 oral, Wk24, RRMS patients
[6] = 1 mg daily CHS-131 oral, Wk48, RRMS patients
[7] = 3 mg daily CHS-131 oral, Wk0, RRMS patients
[8] = 3 mg daily CHS-131 oral, Wk12, RRMS patients
[9] = 3 mg daily CHS-131 oral, Wk24, RRMS patients
[10] = 3 mg daily CHS-131 oral, Wk48, RRMS patients

O=S(=O)(Nc1cc(Cl)c(Oc2cnc3ccccc3c2)c(Cl)c1)c1ccc(Cl)cc1Cl [CHS-131]
concentration of NFL, Max [1, 3]: 29 pg/mL
concentration of NFL, Mean [1, 3]: 20.8 pg/mL
concentration of NFL, Median [1, 3]: 19.4 pg/mL
concentration of NFL, Min [1, 3]: 13.3 pg/mL
concentration of NFL, Q1 [1, 3]: 19.3 pg/mL
concentration of NFL, Q3 [1, 3]: 22.8 pg/mL
concentration of NFL, Max [1, 4]: 160 pg/mL
concentration of NFL, Mean [1, 4]: 27.6 pg/mL
concentration of NFL, Median [1, 4]: 17.9 pg/mL
concentration of NFL, Min [1, 4]: 2.1 pg/mL
concentration of NFL, Q1 [1, 4]: 11.7 pg/mL
concentration of NFL, Q3 [1, 4]: 32.2 pg/mL
concentration of NFL, Max [1, 5]: 65.5 pg/mL
concentration of NFL, Mean [1, 5]: 22.3 pg/mL
concentration of NFL, Median [1, 5]: 17 pg/mL
concentration of NFL, Min [1, 5]: 3.2 pg/mL
concentration of NFL, Q1 [1, 5]: 11.8 pg/mL
concentration of NFL, Q3 [1, 5]: 31.5 pg/mL
concentration of NFL, Max [1, 6]: 340 pg/mL
concentration of NFL, Mean [1, 6]: 27.6 pg/mL
concentration of NFL, Median [1, 6]: 17.5 pg/mL
concentration of NFL, Min [1, 6]: 2.6 pg/mL
concentration of NFL, Q1 [1, 6]: 10.1 pg/mL
concentration of NFL, Q3 [1, 6]: 24.2 pg/mL
concentration of NFL, Max [1, 7]: 73.7 pg/mL
concentration of NFL, Mean [1, 7]: 29.9 pg/mL
concentration of NFL, Median [1, 7]: 19.6 pg/mL
concentration of NFL, Min [1, 7]: 11.7 pg/mL
concentration of NFL, Q1 [1, 7]: 11.8 pg/mL
concentration of NFL, Q3 [1, 7]: 48.1 pg/mL
concentration of NFL, Max [1, 8]: 117 pg/mL
concentration of NFL, Mean [1, 8]: 23.2 pg/mL
concentration of NFL, Median [1, 8]: 16.4 pg/mL
concentration of NFL, Min [1, 8]: 4.9 pg/mL
concentration of NFL, Q1 [1, 8]: 12.2 pg/mL
concentration of NFL, Q3 [1, 8]: 28.1 pg/mL
concentration of NFL, Max [1, 9]: 74.9 pg/mL
concentration of NFL, Mean [1, 9]: 20.4 pg/mL
concentration of NFL, Median [1, 9]: 15.9 pg/mL
concentration of NFL, Min [1, 9]: 5.8 pg/mL
concentration of NFL, Q1 [1, 9]: 10.4 pg/mL
concentration of NFL, Q3 [1, 9]: 26.6 pg/mL
concentration of NFL, Max [1, 10]: 119 pg/mL
concentration of NFL, Mean [1, 10]: 19.3 pg/mL
concentration of NFL, Median [1, 10]: 14.3 pg/mL
concentration of NFL, Min [1, 10]: 4.9 pg/mL
concentration of NFL, Q1 [1, 10]: 9 pg/mL
concentration of NFL, Q3 [1, 10]: 20.4 pg/mL
new CE lesions in subjects with lower average levels of NFL ([2]; FIG. 1): fewer new CE lesions
new or enlarging T2 lesions in subjects with lower average levels of NFL ([2]; FIG. 2): fewer new or enlarging T2 lesions
EDSS in subjects with lower levels of NFL (trend) ([2]; FIG. 3): lower EDSS
